{
  "source": "patent CN104710358A",
  "about": "“喹啉-4-甲酰胺衍生物及其医药用途” (Chengdu Military General Hospital of PLA, priority 2015, dated 2015)",
  "tested_on": "PTSD rat conditioned fear response [束缚应激致PTSD大鼠条件恐惧反应]",
  "experiment": "Conditioned fear response in restraint-stress-induced PTSD rats (freezing after foot shock)",
  "assay_type": "in vivo",
  "conditions": "dose not given, Fig. 1",
  "data": [
    {"smiles": "Cc1ccc(Cl)cc1N1CCN(CCCNC(=O)c2ccnc3ccccc23)CC1", "note": "[化合物1, N-{3-[4-(5-氯-2-甲基苯基)哌嗪基]丙基}-喹啉-4-甲酰胺, 盐酸乙醚成盐]", "values": [
      {"measurement": "percentage of freezing time", "setting": "PTSD group, before versus after drug administration, 5 min test in shock box (CS+) without current", "value": "显著降低"},
      {"measurement": "inhibition of PTSD conditioned fear response", "setting": "PTSD rats", "value": "显著抑制PTSD条件性恐惧反应"},
      {"measurement": "anxiety level of PTSD rats", "setting": "PTSD rats, inferred from the conditioned fear test", "value": "降低PTSD大鼠的焦虑水平"}
    ]}
  ]
}
